Laboratory results reported in US4460594A, “Bicyclo-hetero-alkylene-1-piperidines, pharmaceutical compositions thereof and methods of use thereof” (Beecham Group p.l.c., priority 1981, dated 1984).
Where a name gives a salt, the structure may show the parent alone. Values belong to the compound of their own block, whether it stands above or below them.

Key:
[1] = test system: presynaptic dopaminergic autoreceptors; test: Inhibition of Spontaneous Climbing in the Mouse; type: in vivo; conditions: 10 minute period commencing 3 minutes after administration; for ID50, Inhibition of Spontaneous Climbing Behaviour in Mice: subcutaneous; for % Inhibition of Spontaneous Climbing Behaviour in Mice: at 0.2 mg/kg subcutaneous
Procedure: It is believed that this inhibitory effect is mediated by stimultion of presynaptic dopaminergic autoreceptors, i.e. receptors whose stimulation results in inhibition of dopamine synthesis and electrical activity of dopamine neurones. Spontaneous climbing behavior was assessed by the method of M. P. Martres et al., Brain Res. 136, 319 (1977).
This involves the monitoring of the frequency of climbing behaviour of mice in inverted food hoppers over a 10 minute period commencing 3 minutes after subcutaneous administration of compound.
A climb is defined as the mouse having all four feet off the ground. Experiments are carried out with a minimum of 5 groups of 10 mice, one group acting as control. […] The ID50 value is calculated using the Litchfield and Wilcoxon technique and is defined as the concentration of drug which would be expected to reduce spontaneous climbing of a group of mice by 50%.

α-Adrenoceptor [2] = test: displacement of 3H-Yohimbine, α-adrenoceptor labelling; type: binding
From the text: (§1) α-Adrenoceptor and dopamine receptors were labelled using methods similar to those previously reported [see S. Lazareno and S. R. Nahorski, Communication presented to Brit. Pharm. Soc., Bradford, 74 (1981), and P. Greengrass and R. Bremer, Eur. J. Pharmacol 55, 323 (1979)].

α-Adrenoceptor [3] = test: displacement of 3H-Prazosin, α-adrenoceptor labelling; type: binding
From the text: as §1

dopamine receptor [4] = molecular target: T1, dopamine receptor (Rattus norvegicus, UniProt P61169); test: displacement of 3H-Domperidone, dopamine receptor labelling; type: binding
T1 construct: from tissue
From the text: as §1

dopamine receptor [5] = molecular target: T1, dopamine receptor; test: displacement of 3H-Spiperone, dopamine receptor labelling; type: binding
From the text: as §1

[6] = read-out: INHIBITION CONSTANT Ki, 3H-Yohimbine
[7] = read-out: INHIBITION CONSTANT Ki, 3H-Prazosin
[8] = 3H-Domperidone, read-out: INHIBITION CONSTANT Ki, 3H-Domperidone
[9] = 3H-Spiperone, read-out: INHIBITION CONSTANT Ki, 3H-Spiperone

T1 sequence (P61169 whole entry): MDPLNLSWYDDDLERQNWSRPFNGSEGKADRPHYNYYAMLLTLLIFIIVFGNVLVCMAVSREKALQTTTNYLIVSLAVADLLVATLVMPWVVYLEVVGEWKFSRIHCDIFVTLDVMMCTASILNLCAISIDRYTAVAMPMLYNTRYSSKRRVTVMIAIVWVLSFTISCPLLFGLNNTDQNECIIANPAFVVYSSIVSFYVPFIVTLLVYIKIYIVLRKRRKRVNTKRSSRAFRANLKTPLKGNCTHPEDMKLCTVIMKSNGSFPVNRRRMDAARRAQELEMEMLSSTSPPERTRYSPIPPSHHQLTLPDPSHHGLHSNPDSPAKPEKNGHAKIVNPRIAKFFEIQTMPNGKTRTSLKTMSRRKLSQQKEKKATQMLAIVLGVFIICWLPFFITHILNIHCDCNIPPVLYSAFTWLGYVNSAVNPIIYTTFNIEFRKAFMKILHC

Compound: Br.Oc1cccc(C2CCCN(Cc3cc4ccccc4o3)C2)c1 (stereo not drawn) [Compound 14, 3-[1-(2-benzofurylmethyl)-3-piperidyl]phenol hydrobromide]
- ID50, Inhibition of Spontaneous Climbing Behaviour in Mice [1]: 1.7 mg/kg

Compound: NC1CCc2c(ccc(O)c2O)C1 (stereo not drawn) [A-5,6-DTN]
- Ki (α-Adrenoceptor [2]; [6]): 690 nM
- Ki (α-Adrenoceptor [3]; [7]): 16000 nM
- Ki (dopamine receptor [4]; [8]): 240 nM
- Ki (dopamine receptor [5]; [9]): 520 nM

Compound: Oc1cccc(C2CCCN(CCc3c[nH]c4ccccc34)C2)c1 (stereo not drawn) [Compound 34, 3-(1-[2-(1H-3-Indolyl)ethyl]-3-piperidyl)phenol]
- % Inhibition of Spontaneous Climbing Behaviour in Mice [1]: 52%

Compound: Br.Oc1cccc(C2CCCN(Cc3c(Br)oc4ccccc34)C2)c1 (stereo not drawn) [Compound 11, 3-[1-(2-bromo-3-benzofurylmethyl)-3-piperidyl]phenol hydrobromide]
- % Inhibition of Spontaneous Climbing Behaviour in Mice [1]: 24%

Compound: NC1CCc2cc(O)c(O)cc2C1 (stereo not drawn) [A-6,7-DTN]
- Ki (α-Adrenoceptor [2]; read-out: […] Ki, 3H-Yohimbine): 560 nM
- Ki (α-Adrenoceptor [3]; read-out: […] Ki, 3H-Prazosin): 10000 nM
- Ki (dopamine receptor [4]): 12 nM
- Ki (dopamine receptor [5]): 130 nM

- Ki (α-Adrenoceptor [2]; [6]): 13 nM
- Ki (α-Adrenoceptor [3]; [7]): 210 nM
- Ki (dopamine receptor [4]; [8]): 48 nM
- Ki (dopamine receptor [5]; [9]): 200 nM
Compound: Oc1cccc(C2CCCN(CC3Cc4ccccc4O3)C2)c1 (stereo not drawn) [Compound 30, 3-(1-[(2,3-Dihydro-2-benzofuranyl)methyl]-3-piperidinylphenol) hydrobromide hydrate]
- ID50, Inhibition of Spontaneous Climbing Behaviour in Mice [1]: 0.09 mg/kg

Compound: Oc1cccc(C2CCCN(Cc3coc4ccccc34)C2)c1 (stereo not drawn) [Compound 12, 3-[1-(3-Benzofurylmethyl)-3-piperidyl]phenol hydrobromide hemihydrate]
- % Inhibition of Spontaneous Climbing Behaviour in Mice [1]: 23%

Compound: Oc1cccc(C2CCCN(CCc3cc4ccccc4o3)C2)c1 (stereo not drawn) [Compound 13, 3-(1-[2-(2-Benzofuryl)ethyl]-3-piperidyl)phenol hydrobromide hemihydrate]
- ID50, Inhibition of Spontaneous Climbing Behaviour in Mice [1]: 0.29 mg/kg
